# Experimental data reported in patent US7507749B2, “Antitumor agents” (priority 2001, dated 2009).
# Like-named read-outs stand apart in the source and are kept apart here.
# How the values were obtained:
# [1] = system: mammary adenocarcinoma-17/Adr; experiment: Test D: racemic compound 22c against early stage mammary adenocarcinoma-17/Adr; type: in vivo; conditions: for % Body Wt Loss at Nadir / % T/C mass / Activity Rating / Day of Nadir / Drug Deaths / Growth Delay / Log Kill / Median Tumor Mass on Day 10 (Range) / Tumor Free day-42: days 1,2,3,6,7,8
# Protocol: Female C3H/HeN (MTV-neg) mice were obtained from N.C.I. Frederick (D.O.B. was Oct. 9, 2000; D.O.A. was Nov. 14, 2000). […] Then, P.B.S. was added, and the pH was adjusted to 7 with HCl. 0.2 ml per injection was administered IV.
# [2] = system: colon carcinoma 26
# Protocol: In this trial the R-enantiomers of XK-469, compound 22c, and compound 22b were compared against advanced staged colon carcinoma 26 in female Balb/c mice. […] Cage #2 was 22b at 400 mg/kg and Cage #4 was 22c at 400 mg/kg.
# The XK469-R, 22b, and 22c compound doses were all prepared the same, using 3% ethanol, 1% POE-80, and 0.5% sodium bicarbonate. The injection volume was 0.2 mu/mouse IV. […] The mice were Balb/c female mice: DOB Feb. 12, 2001; DOA Mar. 27, 2001; DOT Sep. 8, 2001, with an average body weight of 24.7 grams at the start of Rx administration. The tumor was Colon Carcinoma-26 passage 141; date of implant Sep. 8, 2001, and implanted at 30 to 60 mg fragments bilaterally SC. All tumors were 63 to 171 mg on day 6, the day of first Rx.
# [3] = system: mammary adenocarcinoma-16/C; experiment: Test F: R-enantiomers of 22b and 22c against early staged mammary adenocarcinoma-16/C; type: in vivo, C3H female mice
# Protocol: C3H female mice were obtained from N.C.I. (D.O.B. was […]; D.O.A. was Jan. 27, 2001). The mice weighed an average of 19.2 gm. Mice were implanted SC with mammary adenocarcinoma-16/C passage-170, a fast growing, highly invasive, highly metastatic tumor (D.O.T. was Mar. 8, 2001; Td was 1.2 days).
# The R-enantiomers of both Compound 22c and Compound 22b were each suspended in 3% ethanol, 1% POE-80, 0.5% sodium bicarbonate (by volume) to effect solution, P.B.S. was then added and the pH adjusted to 7 with HCl. Adriamycin (ADRIA; lot number 20338c) was suspended in dH2O to effect solution and the pH was adjusted to 6.0. Mice were administered 0.2 ml per IV injection.
# [4] = system: pancreatic ductal adenocarcinoma-03; type: in vivo
# Protocol: BDF1 female mice were obtained from N.C.I., CRL-Ral (D.O.B. was Feb. 26, 2001; D.O.A. was Mar. 10, 2001). The mice weighed an average of 22.5 gm. Mice were implanted SC with pancreatic ductal adenocarcinoma-03 passage 143. (D.O.T. was May 29, 2001; Td was 2.3 days).
# The R-enantiomer of compound 22c was suspended in 3% ethanol, 1% POE-80, 0.25% sodium bicarbonate (by volume) to effect solution. dH2O was then added, and the pH adjusted to 7 with HCl. […] The R-enantiomer of compound 22b was suspended in 3% ethanol, 1% POE-80, 0.5% sodium-bicarbonate (by volume) to effect solution. Then, dH2O was added, and the pH adjusted to 7.5 with HCl. […] Adriamycin (source ADRIA; lot 2033BC) was suspended in dH2O to effect solution, and the pH was 6.0.
# Treatment began six days following implant, at which time the tumors were palpable size (126 mg median). The duration of treatment was prolonged (18 days) in order to obtain a clear separation in efficacy between the compounds.
# [5] = Cage 3, IV 50, 62.5, then 60 mg/kg/inj, total 352.5 mg/kg
# [6] = Cage 4, IV 30, 37.5, then 36 mg/kg/inj, total 211.5 mg/kg
# [7] = Cg 5, IV 50 mg/kg/inj days 6,8,10,13,15, total 250 mg/kg
# [8] = Cage 2, IV 65 mg/kg/inj qd 1-4, total 260 mg/kg
# [9] = Cage 3, IV 65 mg/kg/inj days 1,3,5,7, total 260 mg/kg
# [10] = Cage 3, IV 65 mg/kg/inj days 1,3,5,7, total 260 mg/kg, listed as R-enantiomer of compound 22c
# [11] = Cage 4, IV 40 mg/kg/inj days 1,3,5,7, total 160 mg/kg
# [12] = Cage 4, IV 40 mg/kg/inj days 1,3,5,7, total 160 mg/kg, listed as R-enantiomer of compound 22c
# [13] = Cg 13 in table (Cage 12 in text), IV 80 mg/kg/inj days 6,9,12,15,18,21, total 480 mg/kg
smiles,measurement,setting,value
"CC(Oc1ccc(Oc2ccc3ccc(Br)cc3n2)cc1)C(=O)O (racemic) [Racemic 22c, 2-[4-(7-bromoquinolin-2-yloxy)phenoxy]propanoic acid]",Duration of slowing of nerve conduction,"[1]; Cage 3, 60 to 62.5 mg/kg dose IV",approximately 10 minutes
same,Neuromuscular toxicity,"[1]; Cage 3, 60 to 62.5 mg/kg dose IV, mild gait disturbance",modest slowing of nerve conduction
same,% Body Wt Loss at Nadir,[1]; [5],−5.5%
same,% T/C mass,[1]; [5],0%
same,Activity Rating,[1]; [5],++++ (>2.8)
same,Day of Nadir,[1]; [5],11 days
same,Drug Deaths,[1]; [5],0/5
same,Growth Delay,[1]; [5],14 days
same,Log Kill,[1]; [5],4.2
same,Median Tumor Mass on Day 10 (Range),[1]; [5],0 (0-63) mg
same,Tumor Free day-42,[1]; [5],0/5
same,Day tumors reached 1000 mg (range),"[1]; Cage 3, total 352.5 mg/kg IV",21 (range 19-42) day
same,% Body Wt Loss at Nadir,[1]; [6],−4.1%
same,% T/C mass,[1]; [6],5.6%
same,Activity Rating,[1]; [6],++++ (>2.8)
same,Day of Nadir,[1]; [6],13 days
same,Drug Deaths,[1]; [6],0/5
same,Growth Delay,[1]; [6],10 days
same,Log Kill,[1]; [6],3.0
same,Median Tumor Mass on Day 10 (Range),[1]; [6],172 (0-344) mg
same,Tumor Free day-42,[1]; [6],0/5
same,Neuromuscular toxicity,"[1]; Cage 4, IV 30-37.5 mg/kg/inj, total 211.5 mg/kg",no gait disturbance
same,Day tumors reached 1000 mg (range),"[1]; Cage 4, total 211.5 mg/kg IV",17 (range 14-21) day
same,Toxicity of dose group,"[2]; Cage 4, 400 mg/kg, omitted from Table 8",toxic
same,Activity Rating,[2]; [7],++++ (>2.8)
same,CR's,[2]; [7],3/6
same,tumor free survivors on day 55,[2]; [7],3/6
C[C@@H](Oc1ccc(Oc2ccc3ccc(Br)cc3n2)cc1)C(=O)O [Compound R-22c],% Body Wt Loss at Nadir,[3]; [8],−22.9%
same,% T/C mass,[3]; [8],toxic
same,Activity Rating,[3]; [8],toxic
same,Cause of death,[3]; [8],G.I. epithelial damage
same,Day of Nadir,[3]; [8],6 days
same,Drug Deaths,[3]; [8],5/5
same,Growth Delay in Days,[3]; [8],toxic
same,Log Kill,[3]; [8],toxic
same,Median Tumor Mass on Day 10 (Range),[3]; [8],toxic
same,Median time for tumors to 1000 mg (range),[3]; [8],toxic
same,Neuromuscular toxicity,[3]; [8],No neuromuscular toxicity
same,Tumor Free day-155,[3]; [8],0/5
same,Drug Deaths,"[3]; Cage 2, IV 65 mg/kg/inj qd 1-4, total 260 mg/kg, listed as R-enantiomer of compound 22c",All the mice died
same,% Body Wt Loss at Nadir,[3]; [9],−8.3%
same,% T/C mass,[3]; [9],4%
same,Activity Rating,[3]; [9],++ (1.3-1.9)
same,Day of Nadir,[3]; [9],9 days
same,Day of full recovery of body weight,[3]; [9],12 days
same,Drug Deaths,[3]; [9],0/5
same,Growth Delay,[3]; [9],5.8 days
same,Log Kill,[3]; [9],1.7
same,Median Tumor Mass on Day 10 (Range),[3]; [9],63 mg
same,Median time for tumors to 1000 mg (range),[3]; [9],15.3 (14-21.5) days
same,Neuromuscular toxicity,[3]; [9],no neuromuscular toxicity
same,Tumor Free day-155,[3]; [9],0/5
same,% Body Wt Loss at Nadir,[3]; [10],−8.3%
same,% T/C mass,[3]; [10],4%
same,Drug Deaths,[3]; [10],no deaths
same,% Body Wt Loss at Nadir,[3]; [11],+6.4%
same,% T/C mass,[3]; [11],9%
same,Activity Rating,[3]; [11],++ (1.3-1.9)
same,Day of Nadir,[3]; [11],8 days
same,Drug Deaths,[3]; [11],0/5
same,Growth Delay,[3]; [11],4.7 days
same,Log Kill,[3]; [11],1.4
same,Median Tumor Mass on Day 10 (Range),[3]; [11],138 mg
same,Median time for tumors to 1000 mg (range),[3]; [11],14.2 (12.5-16.7) days
same,Tumor Free day-155,[3]; [11],1/5
same,% Body Wt Loss at Nadir,[3]; [12],+6.4%
same,% T/C mass,[3]; [12],9%
same,Neuromuscular toxicity,"[3]; whole trial (Test F), IV",completely devoid of neuromuscular toxicity
same,Behavior post injection,"[4]; Cage 12 in text, IV 80 mg/kg/inj, lasted only a few minutes",agitated post IV injection
same,Neuromuscular toxicity,"[4]; Cage 12 in text, IV 80 mg/kg/inj, total 480 mg/kg",no neuromuscular toxicity
same,% Body Wt change between day 6 and day 24,[4]; [13],+5.9%
same,% T/C mass,[4]; [13],2.8%
same,Activity Rating,[4]; [13],++++ (>2.8)
same,CR's,[4]; [13],3/4
same,Drug Deaths,[4]; [13],0/4
same,Growth Delay,[4]; [13],23.5 days
same,Log Kill,[4]; [13],3.1
same,Median Tumor Mass on Day 24 (Range),[4]; [13],63 mg
same,"Median time for tumors to 1,000 mg (range)",[4]; [13],40 days
same,PR's,[4]; [13],3/4
same,Tumor Free day-157,[4]; [13],0/4
same,Drug Deaths,[2]; [7],0/6
same,% Body Wt change at nadir,"[2]; mouse, in vivo",−8.1% (17)
same,Activity Rating,"[2]; mouse, in vivo",++++ (key: ++++: >2.8; +++: 2.0-2.8; ++: 1.3-1.9; +: 0.7-1.2; −: <0.7)
same,CR's,"[2]; mouse, in vivo",3/6
same,Growth Delay in Days,"[2]; mouse, in vivo",3/6
same,Log Kill,"[2]; mouse, in vivo",>3.5
same,Median time for tumors to 700 mg (range),"[2]; mouse, in vivo",3/6 tumor free
same,PR's,"[2]; mouse, in vivo",3/6
same,Tumor Free day-156,"[2]; mouse, in vivo",3/6
same,day of nadir,"[2]; mouse, in vivo",−8.1% (17) day
